Results from patent publication US20240208992A1, “MACROCYCLES AS CFTR MODULATORS” (Idorsia Pharmaceuticals Ltd, priority 2021, published 2024).

Target: human F508del-CFTR (Homo sapiens, UniProt P13569, DEL508-508)
Test: F508del-CFTR cell surface expression (corrector activity), DiscoveRx ß-galactosidase complementation chemiluminescence assay in recombinant U2OS cell line;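 also: U2OS cells co-expressing ProLink-tagged F508del-CFTR and a membrane-anchored enzyme acceptor, where more surface CFTR restores β-galactosidase activity measured by chemiluminescence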
Details: for EC50: EC50, F508del-CFTR cell surface expression; for Emax: U2OS
[1] = U2OS cell line, 16h compound incubation, geomean values
[2] = in relation to the Emax of the corrector lumacaftor (=100%), U2OS cell line, 16h compound incubation, arithmetic mean values
[3] = U2OS cells, 16h compound incubation, geomean values
[4] = in relation to Emax of corrector lumacaftor (=100%), arithmetic mean values
[5] = U2OS cells, 16h compound incubation, geomean of several measurements
[6] = in relation to the Emax of the corrector lumacaftor (=100%), U2OS cells, 16h compound incubation, arithmetic mean

human F508del-CFTR, sequence (P13569 with tags, fused parts or gaps DEL508-508): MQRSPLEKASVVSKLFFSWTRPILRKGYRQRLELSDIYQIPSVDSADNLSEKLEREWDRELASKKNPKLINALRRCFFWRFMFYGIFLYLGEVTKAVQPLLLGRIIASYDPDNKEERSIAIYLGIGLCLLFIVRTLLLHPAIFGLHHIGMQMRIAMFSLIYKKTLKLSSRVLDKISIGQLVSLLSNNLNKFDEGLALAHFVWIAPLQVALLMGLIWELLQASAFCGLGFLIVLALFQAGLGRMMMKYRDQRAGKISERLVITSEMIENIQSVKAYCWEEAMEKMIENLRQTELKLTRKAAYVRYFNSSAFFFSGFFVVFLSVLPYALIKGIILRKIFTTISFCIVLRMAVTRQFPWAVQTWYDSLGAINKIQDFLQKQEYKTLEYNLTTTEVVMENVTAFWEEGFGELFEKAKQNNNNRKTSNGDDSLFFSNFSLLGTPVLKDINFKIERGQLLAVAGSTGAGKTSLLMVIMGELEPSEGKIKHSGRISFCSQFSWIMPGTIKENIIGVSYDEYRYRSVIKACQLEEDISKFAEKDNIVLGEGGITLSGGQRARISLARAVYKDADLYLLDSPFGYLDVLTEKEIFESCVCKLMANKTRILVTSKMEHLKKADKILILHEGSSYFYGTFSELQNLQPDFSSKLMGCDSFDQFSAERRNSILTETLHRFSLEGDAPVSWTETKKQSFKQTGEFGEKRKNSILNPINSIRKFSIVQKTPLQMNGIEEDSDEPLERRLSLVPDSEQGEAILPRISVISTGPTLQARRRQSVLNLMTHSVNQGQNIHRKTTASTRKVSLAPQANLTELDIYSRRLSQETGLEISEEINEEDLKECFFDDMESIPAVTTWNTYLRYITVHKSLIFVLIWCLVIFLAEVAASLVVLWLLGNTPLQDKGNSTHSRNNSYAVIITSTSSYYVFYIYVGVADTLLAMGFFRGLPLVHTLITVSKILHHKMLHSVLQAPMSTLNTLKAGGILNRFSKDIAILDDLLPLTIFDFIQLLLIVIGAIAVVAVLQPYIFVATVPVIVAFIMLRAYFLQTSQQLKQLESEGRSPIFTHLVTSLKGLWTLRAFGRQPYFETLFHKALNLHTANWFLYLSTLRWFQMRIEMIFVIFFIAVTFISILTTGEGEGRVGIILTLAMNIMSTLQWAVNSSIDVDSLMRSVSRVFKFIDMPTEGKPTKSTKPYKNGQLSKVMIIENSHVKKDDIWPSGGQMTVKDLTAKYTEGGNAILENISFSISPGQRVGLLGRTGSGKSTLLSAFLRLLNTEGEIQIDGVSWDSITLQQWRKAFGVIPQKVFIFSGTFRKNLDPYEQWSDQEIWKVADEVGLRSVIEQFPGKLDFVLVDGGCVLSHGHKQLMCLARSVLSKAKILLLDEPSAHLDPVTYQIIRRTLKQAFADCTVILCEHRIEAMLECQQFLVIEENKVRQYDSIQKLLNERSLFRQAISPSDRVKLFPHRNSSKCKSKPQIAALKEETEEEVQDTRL

| EC50 [1] [nM] | Emax [2] [%] | SMILES | EC50 [3] [nM] | Emax [4] [%] | other results |
| --- | --- | --- | --- | --- | --- |
| 324 | 213 | CC(C)C[C@H]1C(=O)N(C)C2(CC2)C(=O)N[C@H](Cc2ccccc2)COc2cnc3ccc(F)cc3c2C(=O)N[C@H](C(=O)NCCn2cc(C3CC3)cn2)CC(=O)N1C [Example 172, (3′S,7′S,13′R)-13′-benzyl-N-(2-(4-cyclopropyl-1H-pyrazol-1-yl)ethyl)-20′-fluoro-7′-isobutyl-6′,9′-dimethyl-1′,5′,8′,11′-tetraoxo-2′,3′,4′,5′,6′,7′,8′,9′,11′,12′,13′,14′-dodecahydro-1′H-spiro[cyclopropane-1,10′-[1]oxa[4,7,10,14]tetraazacycloheptadecino[17,16-c]quinoline]-3′-carboxamide] | – | – | – |
| – | – | COc1cccc(CCNC(=O)[C@@H]2CC(=O)N(C)[C@@H](CC(C)C)C(=O)N(C)C3(CC3)C(=O)N[C@H](Cc3ccccc3)COc3ncc4ccccc4c3C(=O)N2)c1 [Example 555, (3′S,7′S,13′R)-13′-benzyl-7′-isobutyl-N-(3-methoxyphenethyl)-6′,9′-dimethyl-1′,5′,8′,11′-tetraoxo-2′,3′,4′,5′,6′,7′,8′,9′,11′,12′,13′,14′-dodecahydro-1′H-spiro[cyclopropane-1,10′-[1]oxa[4,7,10,14]tetraazacycloheptadecino[17,16-c]isoquinoline]-3′-carboxamide] | 219 | 309 | – |
| – | – | COc1cc(CCNC(=O)[C@@H]2CC(=O)N(C)[C@@H](CC(C)C)C(=O)N3CCCC[C@@H]3C(=O)N[C@H](Cc3ccccc3)COc3ccc4cnc(C)cc4c3C(=O)N2)on1 [Example 796, (9S,13S,19aR,22R)-22-benzyl-13-isobutyl-N-(2-(3-methoxyisoxazol-5-yl)ethyl)-5,12-dimethyl-7,11,14,20-tetraoxo-7,8,9,10,11,12,13,14,17,18,19,19a,20,21,22,23-hexadecahydro-16H-pyrido[2′,1′:6,7][1]oxa[4,7,10,14]tetraazacycloheptadecino[16,17-f]isoquinoline-9-carboxamide] | 156 | 321 | – |
| – | – | Cc1cc2c3c(ccc2cn1)OC[C@@H](Cc1ccccc1)NC(=O)C1(CC1)N(C)C(=O)[C@H](CC(C)C)N(C)C(=O)C[C@@H](C(=O)NCCc1noc(C2CC2)n1)NC3=O [Example 900, (3′S,7′S,13′R)-13′-benzyl-N-(2-(5-cyclopropyl-1,2,4-oxadiazol-3-yl)ethyl)-7′-isobutyl-6′,9′,20′-trimethyl-1′,5′,8′,11′-tetraoxo-2′,3′,4′,5′,6′,7′,8′,9′,11′,12′,13′,14′-dodecahydro-1′H-spiro[cyclopropane-1,10′-[1]oxa[4,7,10,14]tetraazacycloheptadecino[16,17-f]isoquinoline]-3′-carboxamide] | – | – | EC50 [5]: 831 nM; Emax [6]: 374% |
| – | – | COc1cc(CCNC(=O)[C@@H]2CC(=O)N(C)[C@@H](CC(C)C)C(=O)N(C)[C@H](Cc3nc(C(F)(F)F)no3)C(=O)N[C@H](Cc3ccccc3)COc3cc(C)nc(OC)c3C(=O)N2)on1 [Example 897, (3R,6R,9S,13S)-3-benzyl-9-isobutyl-16-methoxy-N-(2-(3-methoxyisoxazol-5-yl)ethyl)-7,10,18-trimethyl-5,8,11,15-tetraoxo-6-((3-(trifluoromethyl)-1,2,4-oxadiazol-5-yl)methyl)-2,3,4,5,6,7,8,9,10,11,12,13,14,15-tetradecahydropyrido[3,4-p][1]oxa[4,7,10,14]tetraazacycloheptadecine-13-carboxamide] | – | – | EC50 [5]: 32 nM; Emax [6]: 454% |
| – | – | COc1cc(CCNC(=O)[C@@H]2CC(=O)N(C)[C@@H](CC(C)C)C(=O)N3CCCC[C@@H]3C(=O)N[C@H](Cc3ccccc3)COc3ccc4ncc(F)cc4c3C(=O)N2)on1 [Example 769, (9S,13S,19aR,22R)-22-benzyl-5-fluoro-13-isobutyl-N-(2-(3-methoxyisoxazol-5-yl)ethyl)-12-methyl-7,11,14,20-tetraoxo-7,8,9,10,11,12,13,14,17,18,19,19a,20,21,22,23-hexadecahydro-16H-pyrido[2′,1′:6,7][1]oxa[4,7,10,14]tetraazacycloheptadecino[16,17-f]quinoline-9-carboxamide] | 140 | 346 | – |
| 922 | 320 | CC(C)C[C@H]1C(=O)N(C)C2(CC2)C(=O)N[C@H](Cc2ccccc2)COc2cnc3ccc(F)cc3c2C(=O)N[C@H](C(=O)NCCc2cnn(C)c2)CC(=O)N1C [Example 143, (3′S,7′S,13′R)-13′-benzyl-20′-fluoro-7′-isobutyl-6′,9′-dimethyl-N-(2-(1-methyl-1H-pyrazol-4-yl)ethyl)-1′,5′,8′,11′-tetraoxo-2′,3′,4′,5′,6′,7′,8′,9′,11′,12′,13′,14′-dodecahydro-1′H-spiro[cyclopropane-1,10′-[1]oxa[4,7,10,14]tetraazacycloheptadecino[17,16-c]quinoline]-3′-carboxamide] | – | – | – |
| – | – | COc1cc(CCNC(=O)[C@@H]2CC(=O)N(C)[C@@H](CC(C)C)C(=O)N3CCCC[C@@H]3C(=O)N[C@H](Cc3ccccc3)COc3cc(C)c4ncccc4c3C(=O)N2)on1 [Example 822, (9S,13S,19aR,22R)-22-benzyl-13-isobutyl-N-(2-(3-methoxyisoxazol-5-yl)ethyl)-2,12-dimethyl-7,11,14,20-tetraoxo-7,8,9,10,11,12,13,14,17,18,19,19a,20,21,22,23-hexadecahydro-16H-pyrido[2′,1′:6,7][1]oxa[4,7,10,14]tetraazacycloheptadecino[16,17-f]quinoline-9-carboxamide] | – | – | EC50 [5]: 131 nM; Emax [6]: 363% |
| 190 | 292 | CC(C)C[C@H]1C(=O)N2CCCC[C@@H]2C(=O)N[C@H](Cc2ccccc2)COc2cnc3ccccc3c2C(=O)N[C@H](C(=O)NCCc2noc(C3CCC3)n2)CC(=O)N1C [Example 128, (9S,13S,19aR,22R)-22-benzyl-N-(2-(5-cyclobutyl-1,2,4-oxadiazol-3-yl)ethyl)-13-isobutyl-12-methyl-7,11,14,20-tetraoxo-7,8,9,10,11,12,13,14,17,18,19,19a,20,21,22,23-hexadecahydro-16H-pyrido[2′,1′:6,7][1]oxa[4,7,10,14]tetraazacycloheptadecino[17,16-c]quinoline-9-carboxamide] | – | – | – |
| 270 | 271 | CC(C)C[C@H]1C(=O)N(C)C2(CC2)C(=O)N[C@H](Cc2ccccc2)COc2cnc3ccc(F)cc3c2C(=O)N[C@H](C(=O)NCCc2cccc(-n3nccn3)c2)CC(=O)N1C [Example 136, (3′S,7′S,13′R)-N-(3-(2H-1,2,3-triazol-2-yl)phenethyl)-13′-benzyl-20′-fluoro-7′-isobutyl-6′,9′-dimethyl-1′,5′,8′,11′-tetraoxo-2′,3′,4′,5′,6′,7′,8′,9′,11′,12′,13′,14′-dodecahydro-1′H-spiro[cyclopropane-1,10′-[1]oxa[4,7,10,14]tetraazacycloheptadecino[17,16-c]quinoline]-3′-carboxamide] | – | – | – |
| – | – | COc1cccc(CCNC(=O)[C@@H]2CC(=O)N(C)[C@@H](CC(C)C)C(=O)N3CCOC[C@@H]3C(=O)N[C@H](Cc3ccccc3)COc3cc4oc(C)nc4cc3C(=O)N2)c1 [Example 407] | 684 | 123 | – |
| – | – | COc1cccc(CCNC(=O)[C@@H]2CC(=O)N(C)[C@@H](CC(C)C)C(=O)N3CCN(C(=O)CC(C)C)C[C@@H]3C(=O)N[C@H](Cc3ccccc3)COc3ccc4ccccc4c3C(=O)N2)c1 [Example 751, (4aR,7R,18S,22S)-7-benzyl-22-isobutyl-N-(3-methoxyphenethyl)-21-methyl-3-(3-methylbutanoyl)-5,16,20,23-tetraoxo-2,3,4,4a,5,6,7,8,16,17,18,19,20,21,22,23-hexadecahydro-1H-naphtho[1,2-p]pyrazino[2,1-f][1]oxa[4,7,10,14]tetraazacycloheptadecine-18-carboxamide] | 217 | 213 | – |
| 177 | – | CN1C(=O)C[C@@H](C(=O)NCCc2ccc3c(c2)OCO3)NC(=O)c2c(ccc3ccccc23)OC[C@@H](Cc2ccccc2)NC(=O)CN(C[C@H]2CCCCO2)C(=O)[C@@H]1CC1CCCC1 (mixture of isomers) [Example 286, (3RS,7S,13R)-N-(2-(benzo[d][1,3]dioxol-5-yl)ethyl)-13-benzyl-7-(cyclopentylmethyl)-6-methyl-1,5,8,11-tetraoxo-9-(((R)-tetrahydro-2H-pyran-2-yl)methyl)-1,2,3,4,5,6,7,8,9,10,11,12,13,14-tetradecahydronaphtho[1,2-p][1]oxa[4,7,10,14]tetraazacycloheptadecine-3-carboxamide] | – | – | – |
| 269 | – | COc1cccc2c1C(=O)N[C@H](C(=O)NCCc1nc3ccccc3o1)CC(=O)N(C)[C@@H](CC(C)C)C(=O)N(CCC1CCCCC1)CC(=O)N[C@H](Cc1ccccc1)CO2 (mixture of isomers) [Example 16, (3R,9S,13RS)-N-(2-(benzo[d]oxazol-2-yl)ethyl)-3-benzyl-7-(2-cyclohexylethyl)-9-isobutyl-16-methoxy-10-methyl-5,8,11,15-tetraoxo-2,3,4,5,6,7,8,9,10,11,12,13,14,15-tetradecahydrobenzo[p][1]oxa[4,7,10,14]tetraazacycloheptadecine-13-carboxamide] | – | – | – |

| SMILES | EC50 [1] [nM] | Emax [2] [%] | EC50 [3] [nM] | Emax [4] [%] | other results |
| --- | --- | --- | --- | --- | --- |
| COc1cccc(CCNC(=O)[C@@H]2CC(=O)N(C)[C@@H](CC3CCCCC3)C(=O)N(CC[C@H]3CCCCO3)CC(=O)N[C@H](Cc3ccccc3)COc3ccc4ccccc4c3C(=O)N2)c1 (racemic) [Example 299, (3RS,7S,13R)-13-benzyl-7-(cyclohexylmethyl)-N-(3-methoxyphenethyl)-6-methyl-1,5,8,11-tetraoxo-9-(2-((SR)-tetrahydro-2H-pyran-2-yl)ethyl)-1,2,3,4,5,6,7,8,9,10,11,12,13,14-tetradecahydronaphtho[1,2-p][1]oxa[4,7,10,14]tetraazacycloheptadecine-3-carboxamide] | 109 | 136 | – | – | – |
